The values that follow come from US11072612B2, “NLRP3 modulators” (INNATE TUMOR IMMUNITY, INC., priority 2016, dated 2021).

The term EC50 denotes the concentration at which the effect is half-maximal. A lower EC50 goes with an effect from little substance.

The structures appear in SMILES notation.

Type in all cases: cell-based
One assay deals with T1, hNLRP3 (Homo sapiens, UniProt Q96P20).
T1 construct: THP-1 cells were purchased from the American Type Culture Collection; host or cells: THP-1 cells, PMA-differentiated
T1 sequence (Q96P20 whole entry): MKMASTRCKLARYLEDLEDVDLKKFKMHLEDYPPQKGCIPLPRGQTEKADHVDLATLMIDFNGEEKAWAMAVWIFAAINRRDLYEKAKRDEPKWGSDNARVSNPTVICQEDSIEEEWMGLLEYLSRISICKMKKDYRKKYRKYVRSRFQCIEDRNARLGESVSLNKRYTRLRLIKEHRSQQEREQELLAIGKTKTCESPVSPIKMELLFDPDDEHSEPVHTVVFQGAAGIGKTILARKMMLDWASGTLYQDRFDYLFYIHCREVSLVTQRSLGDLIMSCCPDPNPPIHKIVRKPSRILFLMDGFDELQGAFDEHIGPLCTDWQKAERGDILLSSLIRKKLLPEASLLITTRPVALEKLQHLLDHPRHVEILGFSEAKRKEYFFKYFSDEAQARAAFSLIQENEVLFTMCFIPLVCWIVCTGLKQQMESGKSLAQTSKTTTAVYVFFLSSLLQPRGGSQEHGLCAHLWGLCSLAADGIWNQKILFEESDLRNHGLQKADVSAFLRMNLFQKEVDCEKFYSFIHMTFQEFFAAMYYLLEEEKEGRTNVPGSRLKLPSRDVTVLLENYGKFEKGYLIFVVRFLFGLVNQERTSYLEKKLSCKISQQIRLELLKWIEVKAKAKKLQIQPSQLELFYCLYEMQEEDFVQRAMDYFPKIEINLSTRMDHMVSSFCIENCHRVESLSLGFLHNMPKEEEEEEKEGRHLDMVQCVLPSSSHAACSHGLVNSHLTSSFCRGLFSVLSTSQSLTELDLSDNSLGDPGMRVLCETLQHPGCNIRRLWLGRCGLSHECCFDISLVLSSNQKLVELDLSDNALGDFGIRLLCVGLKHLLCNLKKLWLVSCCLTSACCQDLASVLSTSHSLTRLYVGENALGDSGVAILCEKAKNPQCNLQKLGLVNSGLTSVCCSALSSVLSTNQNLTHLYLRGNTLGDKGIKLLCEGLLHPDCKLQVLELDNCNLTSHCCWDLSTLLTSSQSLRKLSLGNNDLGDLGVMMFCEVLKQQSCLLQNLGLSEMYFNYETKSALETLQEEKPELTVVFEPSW
In words: hNLRP3 agonist assay: IL-1β production in PMA-differentiated THP-1 cells (ELISA). The conditions noted are these: Table 2, 4 hours, IL-1β by ELISA. Background: An ELISA detects its analyte on a solid surface through an enzyme-linked reagent.

For the next assay, the target named is T2, TLR7 (Homo sapiens, UniProt Q9NYK1).
T2 sequence (Q9NYK1 27-1049): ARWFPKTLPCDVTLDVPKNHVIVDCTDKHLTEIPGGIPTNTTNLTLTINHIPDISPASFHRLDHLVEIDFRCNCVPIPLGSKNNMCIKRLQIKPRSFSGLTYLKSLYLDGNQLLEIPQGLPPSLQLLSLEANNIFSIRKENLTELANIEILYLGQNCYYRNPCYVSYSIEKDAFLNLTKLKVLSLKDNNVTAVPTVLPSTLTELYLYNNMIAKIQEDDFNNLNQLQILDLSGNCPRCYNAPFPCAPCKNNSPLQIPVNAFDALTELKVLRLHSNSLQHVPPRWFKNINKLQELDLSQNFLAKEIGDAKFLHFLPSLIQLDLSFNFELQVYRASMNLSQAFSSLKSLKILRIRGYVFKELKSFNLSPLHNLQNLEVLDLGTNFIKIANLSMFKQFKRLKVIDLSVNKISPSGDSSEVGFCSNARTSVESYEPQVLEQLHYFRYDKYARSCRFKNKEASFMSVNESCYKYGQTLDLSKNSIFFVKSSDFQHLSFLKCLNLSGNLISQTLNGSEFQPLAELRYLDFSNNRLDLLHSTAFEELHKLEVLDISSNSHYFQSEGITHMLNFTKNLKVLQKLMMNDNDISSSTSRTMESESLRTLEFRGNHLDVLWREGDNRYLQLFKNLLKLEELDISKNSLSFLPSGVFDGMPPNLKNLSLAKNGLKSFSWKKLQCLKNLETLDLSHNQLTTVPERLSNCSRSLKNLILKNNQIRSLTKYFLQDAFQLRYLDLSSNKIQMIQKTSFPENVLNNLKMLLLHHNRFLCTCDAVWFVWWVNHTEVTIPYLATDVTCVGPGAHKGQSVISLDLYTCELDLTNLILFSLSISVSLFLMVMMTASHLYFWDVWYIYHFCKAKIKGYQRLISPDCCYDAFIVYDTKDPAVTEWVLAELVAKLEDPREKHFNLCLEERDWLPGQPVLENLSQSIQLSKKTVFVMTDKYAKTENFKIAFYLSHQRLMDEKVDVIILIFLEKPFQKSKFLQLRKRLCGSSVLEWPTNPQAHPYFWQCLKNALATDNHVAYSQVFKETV
In words: TLR7 EC50 assay. As to conditions: Table 2.

The target in a further assay is T3, TLR8 (Homo sapiens, UniProt Q9NR97).
T3 sequence (Q9NR97 27-1041): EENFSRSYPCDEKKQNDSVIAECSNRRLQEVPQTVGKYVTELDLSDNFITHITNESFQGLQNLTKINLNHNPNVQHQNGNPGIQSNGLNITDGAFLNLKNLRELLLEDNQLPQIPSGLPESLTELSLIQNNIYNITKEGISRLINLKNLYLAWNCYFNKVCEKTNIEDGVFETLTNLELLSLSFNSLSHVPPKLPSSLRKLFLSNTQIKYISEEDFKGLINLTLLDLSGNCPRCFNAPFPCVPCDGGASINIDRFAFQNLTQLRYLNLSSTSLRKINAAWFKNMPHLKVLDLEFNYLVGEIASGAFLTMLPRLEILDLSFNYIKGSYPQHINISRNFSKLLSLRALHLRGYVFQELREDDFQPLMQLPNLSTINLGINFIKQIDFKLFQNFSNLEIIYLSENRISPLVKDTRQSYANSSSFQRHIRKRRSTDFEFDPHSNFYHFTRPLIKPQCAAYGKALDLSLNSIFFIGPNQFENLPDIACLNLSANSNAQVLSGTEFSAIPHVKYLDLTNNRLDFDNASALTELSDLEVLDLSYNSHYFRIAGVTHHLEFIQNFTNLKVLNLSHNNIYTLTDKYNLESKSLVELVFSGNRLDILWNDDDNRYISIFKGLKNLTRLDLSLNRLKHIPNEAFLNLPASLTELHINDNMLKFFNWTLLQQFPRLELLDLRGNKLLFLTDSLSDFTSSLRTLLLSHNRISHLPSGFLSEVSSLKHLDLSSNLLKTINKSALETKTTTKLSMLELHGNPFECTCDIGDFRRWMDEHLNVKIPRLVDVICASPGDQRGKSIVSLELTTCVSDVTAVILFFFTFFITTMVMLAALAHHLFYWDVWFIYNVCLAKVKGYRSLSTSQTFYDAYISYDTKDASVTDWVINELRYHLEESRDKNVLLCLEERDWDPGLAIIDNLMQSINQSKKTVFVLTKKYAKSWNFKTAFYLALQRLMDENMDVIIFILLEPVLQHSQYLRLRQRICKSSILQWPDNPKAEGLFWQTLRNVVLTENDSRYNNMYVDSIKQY
Put plainly: TLR8 EC50 assay. As to conditions: Table 2.

As for `CC(=O)N1CCC(c2nc3c(N)nc4cc(Br)ccc4c3[nH]2)CC1` [Compound 226], the EC50 at hNLRP3 is 20 to 100 µM; at TLR7, greater than 100 µM; on TLR8 it was greater than 100 µM.

In the case of `Nc1nc2cc(C(F)(F)F)ccc2c2[nH]c(CCCO)nc12` [Compound 127], the EC50 was 20 to 100 µM on hNLRP3, 20 to 100 µM at TLR7 and greater than 100 µM at TLR8.

For `Cc1ccc2c(c1)nc(N)c1nc(CCCO)[nH]c12` [Compound 111], the EC50 on hNLRP3 was 1 to 20 µM; at TLR7, greater than 100 µM; on TLR8 it was 20 to 100 µM.

For the compound `Nc1nc2cc(-c3cc[nH]n3)ccc2c2[nH]c(CN3CC4COCC4C3)nc12` (stereo not drawn) [Compound 232], the EC50 at hNLRP3 is 1 to 20 µM; at TLR7 it was greater than 100 µM; on TLR8, greater than 100 µM.

On to `Nc1ccc(-c2ccc3c(c2)nc(N)c2nc(CCCO)[nH]c23)cn1` [Compound 170, 3-[4-amino-7-(6-aminopyridin-3-yl)-1H-imidazo[4,5-c]quinolin-2-yl]propan-1-ol], for which the EC50 at hNLRP3, on TLR7 and at TLR8 was greater than 100 µM throughout.

Regarding `Nc1nc2cc(CC(=O)O)ccc2c2[nH]c(CCCO)nc12` [Compound 121], the EC50 at hNLRP3 is 1 to 20 µM; on TLR7 it was greater than 100 µM; at TLR8, greater than 100 µM.

Regarding `Nc1nc2cc(C3CCOCC3)ccc2c2[nH]c(CCCO)nc12` [Compound 196, 3-[4-amino-7-(oxan-4-yl)-1H-imidazo[4,5-c]quinolin-2-yl]propan-1-ol], the EC50 at hNLRP3, on TLR7 and on TLR8 was greater than 100 µM in each case.
